Results from patent US20090318375A1, “Crystalline Azithromycin L-Malate Monohydrate and Pharmaceutical Composition Containing Same” (Hanmi Pharm Co., Ltd, priority 2003, published 2009).
Where two headings read alike, the source gives them in different places. One block for each compound: values may come before it.

Legend:
[1] = Hygroscopicity of acid addition salts of azithromycin after storage; type: physicochemical; details: after 24 hours storage at 40° C. and 75% relative humidity
[2] = Moisture uptake of malate anhydrates exposed at 40° C. and 75% relative humidity; type: physicochemical; details: exposed at 40° C. and 75% relative humidity for 10 hours
[3] = Heat stability test (remaining active azithromycin by HPLC); type: physicochemical; details: 60° C. and 75% relative humidity; for Amount of titrated azithromycin: sealed
Protocol: The time-dependent stability at a high temperature of the inventive azithromycin L-malate monohydrate was measured and compared with that of the known azithromycin dihydrate.

Water-solubility test = type: physicochemical; details: thermodynamic from solid, 25° C., based on amount of azithromycin dissolved
Protocol: The azithromycin L-malate monohydrate of the present invention and azithromycin dihydrate were dissolved in deionized water and in phosphoric acid buffer solution (pH 7) to saturation, respectively. The water-solubility of each of the saturated solutions was analyzed by HPLC according to the procedure described in the US Pharmacopoeia, to determine the amount of azithromycin dissolved.

[4] = Non-hygroscopicity test (moisture content, Karl-Fisher titrator); type: physicochemical
Protocol: The inventive azithromycin L-malate monohydrate was continuously exposed at 25 or 40° C. and 40 to 90% relative humidity for a period of over 15 days. The moisture contents of the inventive salt measured with a Karl-Fisher titrator at storage time 0, 3, 7 and 15 days are shown in Table 5 and FIG. 5.

in vivo = details: beagle, dog, po, 20 mg/kg
Protocol: (§1) Specifically, twelve Marshall beagle dogs (Beijing, average weight: 9.5±0.5 kg) were divided with two groups each consisting of six dogs. Each of divided dogs was fasted for 16 hours and then orally administered with a single 20 mg/kg dose of the inventive azithromycin L-malate monohydrate (test group) or azithromycin dihydrate (control group) contained in a gelatin capsule. After administration, blood samples were periodically collected, followed by separating plasma therefrom. The azithromycin samples extracted from the plasma was subjected to LC/MS/MS analysis to measure the amount of azithromycin therein and to calculate pharmacokinetic parameters.

[5] = dog, in vivo, po, 20 mg/kg
Protocol: as §1

[6] = Pharmacokinetic test, azithromycin concentration in blood; details: beagle, dog, plasma, po, 20 mg/kg
Protocol: as §1

[7] = 37° C.; cited from earlier work
[8] = deionized water, water, read-out: Solubility, deionized water
[9] = phosphoric acid buffer solution, aqueous buffer, phosphoric acid buffer pH 7, read-out: Solubility, buffer solution (pH 7)

Salt form (hygroscopicity) [1]: Crystalline, hygroscopic
Compound: 2-naphthalene sulfonic acid

Salt form (hygroscopicity) [1]: Crystalline, hygroscopic^e)
Moisture content increased to [2]: ≥ 6%
Compound: CC[C@H]1OC(=O)[C@H](C)[C@@H](O[C@H]2C[C@@](C)(OC)[C@@H](O)[C@H](C)O2)[C@H](C)[C@@H](O[C@@H]2O[C@H](C)C[C@H](N(C)C)[C@H]2O)[C@](C)(O)C[C@@H](C)CN(C)[C@H](C)[C@@H](O)[C@]1(C)O.O=C(O)CC(O)C(=O)O (racemic) [DL-malate anhydrate, Azithromycin DL-Malate Anhydrate]

Heat stability (in words) ([3]; 28 days): highly stable
Amount of titrated azithromycin ([3]; 7 days): 984.6 µg/mg
Amount of titrated azithromycin ([3]; 14 days): 985.1 µg/mg
Amount of titrated azithromycin ([3]; 21 days): 987.0 µg/mg
Amount of titrated azithromycin ([3]; 28 days): 985.4 µg/mg
Amount of titrated azithromycin ([3]; initial): 986.4 µg/mg
solubility (Water-solubility test; [8]): 393000 µg/mL
solubility (Water-solubility test; [9]): 392000 µg/mL
Hygroscopicity (in words) ([4]; 25 or 40° C., 40 to 90% relative humidity, 15 days): largely non-hygroscopic
Moisture content ([4]; 40% relative humidity, 25° C., 3 days): 1.78 wt %
Moisture content ([4]; 40% relative humidity, 25° C., 7 days): 1.75 wt %
Moisture content ([4]; 40% relative humidity, 25° C., 15 days): 1.73 wt %
Moisture content ([4]; 40% relative humidity, 25° C., initial): 1.75 wt %
Moisture content ([4]; 60% relative humidity, 25° C., 3 days): 1.82 wt %
Moisture content ([4]; 60% relative humidity, 25° C., 7 days): 1.80 wt %
Moisture content ([4]; 60% relative humidity, 25° C., 15 days): 1.80 wt %
Moisture content ([4]; 60% relative humidity, 25° C., initial): 1.75 wt %
Moisture content ([4]; 75% relative humidity, 40° C., 3 days): 1.80 wt %
Moisture content ([4]; 75% relative humidity, 40° C., 7 days): 1.82 wt %
Moisture content ([4]; 75% relative humidity, 40° C., 15 days): 1.85 wt %
Moisture content ([4]; 75% relative humidity, 40° C., initial): 1.75 wt %
Moisture content ([4]; 90% relative humidity, 40° C., 3 days): 1.87 wt %
Moisture content ([4]; 90% relative humidity, 40° C., 7 days): 1.85 wt %
Moisture content ([4]; 90% relative humidity, 40° C., 15 days): 1.85 wt %
Moisture content ([4]; 90% relative humidity, 40° C., initial): 1.75 wt %
Cmax (in vivo): 3780 ± 1380 ng/mL
Tmax (in vivo): 36 ± 12 min
AUC(0-t) (in vivo; AUC0-24): 27600 ± 6860 ng·h/mL
AUC(0-t) (in vivo; AUC0-48): 37300 ± 8830 ng·h/mL
Salt form (hygroscopicity) [1]: Crystalline, non-hygroscopic^c)
AUC0-24, T group/C group [5]: 1.34
AUC0-48, T group/C group [5]: 1.34
Cmax compared with azithromycin dihydrate (in words) [5]: about two times higher
Cmax, T group/C group [5]: 1.94
Tmax, T group/C group [5]: 0.75
Compound: CC[C@H]1OC(=O)[C@H](C)[C@@H](O[C@H]2C[C@@](C)(OC)[C@@H](O)[C@H](C)O2)[C@H](C)[C@@H](O[C@@H]2O[C@H](C)C[C@H](N(C)C)[C@H]2O)[C@](C)(O)C[C@@H](C)CN(C)[C@H](C)[C@@H](O)[C@]1(C)O.O=C(O)C[C@H](O)C(=O)O [Azithromycin L-malate monohydrate, azithromycin L-malate monohydrate]

Heat stability (in words) ([3]; 28 days): significant degradation
Amount of titrated azithromycin ([3]; 7 days): 974.6 µg/mg
Amount of titrated azithromycin ([3]; 14 days): 975.3 µg/mg
Amount of titrated azithromycin ([3]; 21 days): 973.2 µg/mg
Amount of titrated azithromycin ([3]; 28 days): 971.6 µg/mg
Amount of titrated azithromycin ([3]; initial): 976.5 µg/mg
solubility (Water-solubility test; [8]): 100 µg/mL
solubility (Water-solubility test; [9]): 5100 µg/mL
Tmax [6]: 48 ± 18 min
Cmax (in vivo): 1950 ± 710 ng/mL
AUC(0-t) (in vivo; AUC0-24): 20600 ± 6640 ng·h/mL
AUC(0-t) (in vivo; AUC0-48): 27900 ± 9710 ng·h/mL
Compound: CC[C@H]1OC(=O)[C@H](C)[C@@H](O[C@H]2C[C@@](C)(OC)[C@@H](O)[C@H](C)O2)[C@H](C)[C@@H](O[C@@H]2O[C@H](C)C[C@H](N(C)C)[C@H]2O)[C@](C)(O)C[C@@H](C)CN(C)[C@H](C)[C@@H](O)[C@]1(C)O [Azithromycin dihydrate, 9-deoxo-9a-aza-9a-methyl-9a-homoerythromycin A, reference compound]
Water-solubility [7]: 1100 µg/mL

Salt form (hygroscopicity) [1]: Amorphous, hygroscopic
Compound: Br [Hydrobromic acid]

Salt form (hygroscopicity) [1]: Crystalline, hygroscopic^d)
Increase of moisture content [2]: about 2.0%
Compound: CCC1OC(=O)C(C)C(OC2CC(C)(OC)C(O)C(C)O2)C(C)C(OC2OC(C)CC(N(C)C)C2O)C(C)(O)CC(C)CN(C)C(C)C(O)C1(C)O.O=C(O)CC(O)C(=O)O [L-malate anhydrate, Azithromycin L-Malate Anhydrate]

Salt form (hygroscopicity) [1]: Crystalline, hygroscopic
Compound: Fumaric acid

Salt form (hygroscopicity) [1]: Amorphous, hygroscopic
Compound: Maleic acid

The next lines start with the compound.

Compound: Cl [Hydrochloric acid]
Salt form (hygroscopicity) [1]: Amorphous, hygroscopic

Compound: O=C(O)[C@H](O)[C@@H](O)C(=O)O [L-Tartaric acid]
Salt form (hygroscopicity) [1]: Crystalline, hygroscopic

Compound: O=S(=O)(O)O [Sulfuric acid]
Salt form (hygroscopicity) [1]: Amorphous, hygroscopic

Compound: Cc1ccc(S(=O)(=O)O)cc1 [p-toluene sulfonic acid]
Salt form (hygroscopicity) [1]: Amorphous, hygroscopic

Compound: Azithromycin D-Malate Anhydrate
Salt form (hygroscopicity) [1]: Crystalline, hygroscopic^f)
Increase of moisture content [2]: ≥ 8%

Compound: Citric acid
Salt form (hygroscopicity) [1]: Amorphous, hygroscopic
